Results on 23 compounds are retold here after US20260293898A1 (priority 2023, published 2026).

SMILES strings stand for the structures.

In one assay the test system is Plasmopara viticola. Nature of the assay: Plasmopara viticola / grape / leaf disc preventative. The following applies: 200 ppm, grape vine leaf disks, inoculated 1 day after application, 6-8 days after application, compared to untreated control. It is filed as in vivo.
The next assay concerns Pythium ultimum. Briefly: Pythium ultimum / liquid culture (seedling damping off). The class given is cell-based. The following applies: Globisporangium ultimum, read-out: control of Pythium ultimum.
Another assay deals with Phytophthora infestans. The class given is in vivo. The following applies: 200 ppm; tomato leaf disks, preventative, inoculated 1 day after application; 5-7 days after application; compared to untreated control.

For the compound `COC(=O)Nc1ccc(-c2cnc3ccc(C(=O)N(C)c4ccc(F)c(OC)c4)cn23)cn1` [X.01, methyl N-[5-[6-[(4-fluoro-3-methoxy-phenyl)-methyl-carbamoyl]imidazo[1,2-a]pyridin-3-yl]-2-pyridyl]carbamate], the “control of Plasmopara viticola” value in the assay on Plasmopara viticola is “at least 80%”. Also, in the assay on Pythium ultimum, the inhibition of growth at 20 ppm was no less than 80%.
Take `COC(=O)Nc1ccc(-c2cnc3c(C)cc(C(=O)N(C)c4ccc(F)c(OC)c4)cn23)cn1` [X.02, methyl N-[5-[6-[(4-fluoro-3-methoxy-phenyl)-methyl-carbamoyl]-8-methyl-imidazo[1,2-a]pyridin-3-yl]-2-pyridyl]carbamate]: the “control of Plasmopara viticola” value in the assay on Plasmopara viticola was “at least 80%”. The inhibition of growth at 20 ppm with Pythium ultimum was no less than 80%.
The like results for `COCN(C(=O)c1cc(C)c2ncc(-c3ccc(NC(=O)OC)nc3)n2c1)c1ccc(F)c(OC)c1` [X.03, methyl N-[5-[6-[(4-fluoro-3-methoxy-phenyl)-(methoxymethyl)carbamoyl]-8-methyl-imidazo[1,2-a]pyridin-3-yl]-2-pyridyl]carbamate] were, in that order, “at least 80%” and no less than 80%.
With `COCN(C(=O)c1ccc2ncc(-c3ccc(NC(=O)OC)nc3)n2c1)c1ccc(F)c(OC)c1` [X.04, methyl N-[5-[6-[(4-fluoro-3-methoxy-phenyl)-(methoxymethyl)carbamoyl]imidazo[1,2-a]pyridin-3-yl]-2-pyridyl]carbamate], the “control of Plasmopara viticola” value in the assay on Plasmopara viticola is recorded as “at least 80%”. For the same compound, the inhibition of growth at 20 ppm in the assay on Pythium ultimum was no less than 80%.
Take `COC(=O)Nc1ccc(-c2cnc3ccc(C(=O)N(C)c4ccc(F)c(OC)c4)cn23)cc1` [X.05, methyl N-[4-[6-[(4-fluoro-3-methoxy-phenyl)-methyl-carbamoyl]imidazo[1,2-a]pyridin-3-yl]phenyl]carbamate]: the “control of Plasmopara viticola” value in the assay with Plasmopara viticola was “at least 80%”. Moreover, the inhibition of growth at 20 ppm in the assay with Pythium ultimum was no less than 80%.
As to `COc1cc(N(C)C(=O)c2ccc3ncc(-c4ccc(NC(=O)C5CC5)nc4)n3c2)ccc1F` [X.06, 3-[6-(cyclopropanecarbonylamino)-3-pyridyl]-N-(4-fluoro-3-methoxy-phenyl)-N-methyl-imidazo[1,2-a]pyridine-6-carboxamide], in the assay on Phytophthora infestans, the “control of Phytophthora infestans” value is “at least 80%”. Besides, the “control of Plasmopara viticola” value with Plasmopara viticola is “at least 80%”. Also, the inhibition of growth at 20 ppm with Pythium ultimum was no less than 80%.
As for `COC(=O)Nc1ccc(-c2cnc3ccc(C(=O)N(C)c4ccc(F)cc4)cn23)cc1` [X.07, methyl N-[4-[6-[(4-fluorophenyl)-methyl-carbamoyl]imidazo[1,2-a]pyridin-3-yl]phenyl]carbamate], the “control of Plasmopara viticola” value in the assay with Plasmopara viticola is given as “at least 80%”. In the assay on Pythium ultimum, the inhibition of growth at 20 ppm was no less than 80%.
As to `COC(=O)Nc1ccc(-c2cnc3c(C)cc(C(=O)N(C)c4ccc(Cl)cc4)cn23)cc1` [X.08, methyl N-[4-[6-[(4-chlorophenyl)-methyl-carbamoyl]-8-methyl-imidazo[1,2-a]pyridin-3-yl]phenyl]carbamate], the “control of Plasmopara viticola” value with Plasmopara viticola is “at least 80%”. In the assay with Pythium ultimum, the inhibition of growth at 20 ppm was no less than 80%.
With `COC(=O)Nc1ccc(-c2cnc3ccc(C(=O)N(C)c4ccc(F)c(C)c4)cn23)cn1` [X.09, methyl N-[5-[6-[(4-fluoro-3-methyl-phenyl)-methyl-carbamoyl]imidazo[1,2-a]pyridin-3-yl]-2-pyridyl]carbamate], in the assay with Plasmopara viticola, the “control of Plasmopara viticola” value is “at least 80%”. Further, the inhibition of growth at 20 ppm with Pythium ultimum is no less than 80%.
In the case of `COC(=O)Nc1ccc(-c2cnc3ccc(C(=O)N(C)c4ccc(C#N)c(OC)c4)cn23)cn1` [X.10, methyl N-[5-[6-[(4-cyano-3-methoxy-phenyl)-methyl-carbamoyl]imidazo[1,2-a]pyridin-3-yl]-2-pyridyl]carbamate], in the assay with Plasmopara viticola, the “control of Plasmopara viticola” value is on record as “at least 80%”. For the same compound, the inhibition of growth at 20 ppm in the assay with Pythium ultimum is no less than 80%.
Turning to `COC(=O)Nc1ccc(-c2cnc3ccc(C(=O)N(C)c4ccc(Cl)c(OC)c4)cn23)cn1` [X.11, methyl N-[5-[6-[(4-chloro-3-methoxy-phenyl)-methyl-carbamoyl]imidazo[1,2-a]pyridin-3-yl]-2-pyridyl]carbamate], the “control of Plasmopara viticola” value in the assay on Plasmopara viticola is recorded as “at least 80%”. The inhibition of growth at 20 ppm with Pythium ultimum was no less than 80%.
As to `COC(=O)Nc1ccc(-c2cnc3c(C)cc(C(=O)N(C)c4ccc(F)cc4)cn23)cn1` [X.12, methyl N-[5-[6-[(4-fluorophenyl)-methyl-carbamoyl]-8-methyl-imidazo[1,2-a]pyridin-3-yl]-2-pyridyl]carbamate], the “control of Plasmopara viticola” value in the assay on Plasmopara viticola is recorded as “at least 80%”. Besides, in the assay with Pythium ultimum, the inhibition of growth at 20 ppm was no less than 80%.
Regarding `COC(=O)Nc1ccc(-c2cnc3cc(C)c(C(=O)N(C)c4ccc(F)cc4)cn23)cn1` [X.13, methyl N-[5-[6-[(4-fluorophenyl)-methyl-carbamoyl]-7-methyl-imidazo[1,2-a]pyridin-3-yl]-2-pyridyl]carbamate], the “control of Plasmopara viticola” value with Plasmopara viticola was “at least 80%”. For the same compound, the inhibition of growth at 20 ppm in the assay with Pythium ultimum is no less than 80%.
Consider `COC(=O)Nc1ccc(-c2cnc3ccc(C(=O)N(CC#N)c4ccc(F)c(OC)c4)cn23)cn1` [X.14, methyl N-[5-[6-[cyanomethyl-(4-fluoro-3-methoxy-phenyl)carbamoyl]imidazo[1,2-a]pyridin-3-yl]-2-pyridyl]carbamate], for which the “control of Plasmopara viticola” value in the assay on Plasmopara viticola is on record as “at least 80%”. Also, in the assay with Pythium ultimum, the inhibition of growth at 20 ppm was no less than 80%.
With `COC(=O)Nc1ccc(-c2cnc3ccc(C(=O)N(CC#N)c4ccc(Cl)c(OC)c4)cn23)cn1` [X.15, methyl N-[5-[6-[(4-chloro-3-methoxy-phenyl)-(cyanomethyl)carbamoyl]imidazo[1,2-a]pyridin-3-yl]-2-pyridyl]carbamate], in the assay on Plasmopara viticola, the “control of Plasmopara viticola” value was “at least 80%”. Further, in the assay on Pythium ultimum, the inhibition of growth at 20 ppm was no less than 80%.
For `COC(=O)Nc1ccc(-c2cnc3ccc(C(=O)N(CS(C)(=O)=O)c4ccc(F)c(OC)c4)cn23)cn1` [X.16, methyl N-[5-[6-[(4-fluoro-3-methoxy-phenyl)-(methylsulfonylmethyl)carbamoyl]imidazo[1,2-a]pyridin-3-yl]-2-pyridyl]carbamate], the inhibition of growth at 20 ppm with Pythium ultimum is no less than 80%.
The same measure, in the same setting: as for `CONC(=O)Nc1ccc(-c2cnc3ccc(C(=O)N(C)c4ccc(F)c(OC)c4)cn23)cn1` [X.17], the figure is no less than 80%.
With `COC(=O)Nc1ccc(-c2cnc3c(NC(C)=O)cc(C(=O)N(C)c4ccc(F)cc4)cn23)cn1` [X.18, methyl N-[5-[8-acetamido-6-[(4-fluorophenyl)-methyl-carbamoyl]imidazo[1,2-a]pyridin-3-yl]-2-pyridyl]carbamate], the “control of Plasmopara viticola” value in the assay with Plasmopara viticola is listed as “at least 80%”. In the assay on Pythium ultimum, the inhibition of growth at 20 ppm was no less than 80%.
`CCN(C(=O)c1ccc2ncc(-c3ccc(NC(=O)OC)nc3)n2c1)c1ccc(F)cc1` [X.19, methyl N-[5-[6-[ethyl-(4-fluorophenyl)carbamoyl]imidazo[1,2-a]pyridin-3-yl]-2-pyridyl]carbamate]: the “control of Plasmopara viticola” value in the assay on Plasmopara viticola is listed as “at least 80%”. The inhibition of growth at 20 ppm with Pythium ultimum is no less than 80%.
With `COC(=O)Nc1ccc(-c2cnc3c(NC(C)=O)cc(C(=O)N(C)c4ccc(F)c(OC)c4)cn23)cn1` [X.20, methyl N-[5-[8-acetamido-6-[(4-fluoro-3-methoxy-phenyl)-methyl-carbamoyl]imidazo[1,2-a]pyridin-3-yl]-2-pyridyl]carbamate], the “control of Plasmopara viticola” value in the assay on Plasmopara viticola is on record as “at least 80%”. In addition, the inhibition of growth at 20 ppm in the assay with Pythium ultimum was no less than 80%.
On to `COCc1cc(C(=O)N(C)c2ccc(F)c(OC)c2)cn2c(-c3ccc(NC(=O)OC)nc3)cnc12` [X.21, methyl N-[5-[6-[(4-fluoro-3-methoxy-phenyl)-methyl-carbamoyl]-8-(methoxymethyl)imidazo[1,2-a]pyridin-3-yl]-2-pyridyl]carbamate], for which, in the assay with Phytophthora infestans, the “control of Phytophthora infestans” value is listed as “at least 80%”. Also, the “control of Plasmopara viticola” value in the assay on Plasmopara viticola is recorded as “at least 80%”. The inhibition of growth at 20 ppm with Pythium ultimum was no less than 80%.
On to `COC(=O)Nc1ccc(-c2cnc3c(C)cc(C(=O)N(C)c4ccnc(OC)c4)cn23)cn1` [X.22, methyl N-[5-[6-[(2-methoxy-4-pyridyl)-methyl-carbamoyl]-8-methyl-imidazo[1,2-a]pyridin-3-yl]-2-pyridyl]carbamate], for which the “control of Phytophthora infestans” value with Phytophthora infestans is recorded as “at least 80%”. The “control of Plasmopara viticola” value with Plasmopara viticola is given as “at least 80%”. In the assay on Pythium ultimum, the inhibition of growth at 20 ppm was no less than 80%.
In the case of `COC(=O)Nc1ccc(-c2cnc3c(C)cc(C(=O)N(C)c4ccc(C#N)c(OC)c4)cn23)cn1` [X.23, methyl N-[5-[6-[(4-cyano-3-methoxy-phenyl)-methyl-carbamoyl]-8-methyl-imidazo[1,2-a]pyridin-3-yl]-2-pyridyl]carbamate], in the assay on Phytophthora infestans, the “control of Phytophthora infestans” value is given as “at least 80%”. Also, in the assay on Plasmopara viticola, the “control of Plasmopara viticola” value is “at least 80%”. Further, the inhibition of growth at 20 ppm with Pythium ultimum was no less than 80%.
